1 compound from patent publication US20230201118A1, “PRODRUG COPOLYMERS AND POLYMERIC MICELLES THEREOF FOR THE DELIVERY OF SHORT-CHAIN FATTY ACIDS, THE PROMOTION OF GUT HEALTH, AND THE TREATMENT OF IMMUNE AND/OR INFLAMMATORY CONDITIONS AND FOOD ALLERGY” (The University of Chicago, priority 2021, published 2023) can be followed below.

The structures appear in SMILES notation.

This assay concerns APCs in the draining LNs. Description: Subcutaneous LPS stimulation: activation markers CD40 and CD86 on APCs in draining LNs. The conditions noted are these: s.c. treatment, LPS challenge on Day 6. Format: in vivo, mouse. As to the method: In order to assess the ability of lymph node targeted Neg-ButM in suppressing the activation of APCs, the investors tested on a mouse model of subcutaneous lipopolysaccharide (LPS) stimulation and evaluated on the activation marker including CD40 and CD86 on the major APCs in the draining LNs. Mice were injected with either PBS, sodium butyrate (NaBut), NtL-ButM, or Neg-ButM subcutaneously at the abdomen site. On Day 6, Mice were challenged with LPS on the same injection site, and sacrificed the next day for the cellular analysis.

On to `CCCC(=O)[O-].[Na+]` [sodium butyrate], for which the “suppression of APC activation” value is “neither the NtL-ButM, nor sodium butyrate showed any significant suppression on the APC activations”.
